Reference: PubChem BioAssay (NCI)
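These data come from cells grown in 96-well plates and exposed to compound for 48 hours at five concentrations. TGI: total growth inhibition.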

Assays:
Assay in all cases: NCI tumour cell line growth inhibition, 48 h
A498 renal = system: A498 renal
A549 NSCLC = system: A549 NSCLC
CAKI-1 renal = system: CAKI-1 renal
CCRF-CEM leukemia = system: CCRF-CEM leukemia
COLO 205 colon = system: COLO 205 colon
DLD-1 colon = system: DLD-1 colon
DMS 114 small cell lung = system: DMS 114 small cell lung
DMS 273 small cell lung = system: DMS 273 small cell lung
EKVX NSCLC = system: EKVX NSCLC
HCC-2998 colon = system: HCC-2998 colon
HCT-116 colon = system: HCT-116 colon
HCT-15 colon = system: HCT-15 colon
HL-60(TB) leukemia = system: HL-60(TB) leukemia
HOP-18 NSCLC = system: HOP-18 NSCLC
HOP-62 NSCLC = system: HOP-62 NSCLC
HOP-92 NSCLC = system: HOP-92 NSCLC
HT29 colon = system: HT29 colon
IGROV1 ovarian = system: IGROV1 ovarian
K-562 leukemia = system: K-562 leukemia
KM12 colon = system: KM12 colon
KM20L2 colon = system: KM20L2 colon
LOX IMVI melanoma = system: LOX IMVI melanoma
M19-MEL melanoma = system: M19-MEL melanoma
MALME-3M melanoma = system: MALME-3M melanoma
MCF7 breast = system: MCF7 breast
MOLT-4 leukemia = system: MOLT-4 leukemia
NCI-H226 lung = system: NCI-H226 lung
NCI-H23 lung = system: NCI-H23 lung
NCI-H460 lung = system: NCI-H460 lung
NCI-H522 lung = system: NCI-H522 lung
NCI/ADR-RES ovarian = system: NCI/ADR-RES ovarian
OVCAR-3 ovarian = system: OVCAR-3 ovarian
OVCAR-4 ovarian = system: OVCAR-4 ovarian
OVCAR-5 ovarian = system: OVCAR-5 ovarian
OVCAR-8 ovarian = system: OVCAR-8 ovarian
P388 leukemia = system: P388 leukemia
P388/ADR leukemia = system: P388/ADR leukemia
RPMI-8226 leukemia = system: RPMI-8226 leukemia
RXF 393 renal = system: RXF 393 renal
SF-268 CNS = system: SF-268 CNS
SF-295 CNS = system: SF-295 CNS
SF-539 CNS = system: SF-539 CNS
SK-MEL-2 melanoma = system: SK-MEL-2 melanoma
SK-MEL-28 melanoma = system: SK-MEL-28 melanoma
SK-MEL-5 melanoma = system: SK-MEL-5 melanoma
SK-OV-3 ovarian = system: SK-OV-3 ovarian
SN12C renal = system: SN12C renal
SN12K1 renal = system: SN12K1 renal
SNB-19 CNS = system: SNB-19 CNS
SNB-75 CNS = system: SNB-75 CNS
SNB-78 CNS = system: SNB-78 CNS
SW-620 colon = system: SW-620 colon
U251 CNS = system: U251 CNS
UACC-257 melanoma = system: UACC-257 melanoma
UACC-62 melanoma = system: UACC-62 melanoma
UO-31 renal = system: UO-31 renal
XF 498 CNS = system: XF 498 CNS

Cc1c2cnccc2c(C)c2c1c1ccccc1n2CC1CO1 (configuration not stated)
TGI (A498 renal): 0.581 µM
TGI (A549 NSCLC): 4.85 µM
TGI (CAKI-1 renal): 4.87 µM
TGI (CCRF-CEM leukemia): 1.28 µM
TGI (COLO 205 colon): 2.87 µM
TGI (DLD-1 colon): 4.58 µM
TGI (DMS 114 small cell lung): 2.43 µM
TGI (DMS 273 small cell lung): 2.43 µM
TGI (EKVX NSCLC): 2.08 µM
TGI (HCC-2998 colon): 4.4 µM
TGI (HCT-116 colon): 5.07 µM
TGI (HCT-15 colon): 4.56 µM
TGI (HL-60(TB) leukemia): 0.597 µM
TGI (HOP-18 NSCLC): 6.56 µM
TGI (HOP-62 NSCLC): 3.34 µM
TGI (HOP-92 NSCLC): 4.31 µM
TGI (HT29 colon): 4.82 µM
TGI (IGROV1 ovarian): 5.99 µM
TGI (K-562 leukemia): 3.24 µM
TGI (KM12 colon): 10.9 µM
TGI (KM20L2 colon): 4.62 µM
TGI (LOX IMVI melanoma): 2.74 µM
TGI (M19-MEL melanoma): 2.94 µM
TGI (MALME-3M melanoma): 3.44 µM
TGI (MCF7 breast): 2.91 µM
TGI (MOLT-4 leukemia): 0.328 µM
TGI (NCI-H226 lung): 5.54 µM
TGI (NCI-H23 lung): 8.4 µM
TGI (NCI-H460 lung): 2.52 µM
TGI (NCI-H522 lung): 3.29 µM
TGI (NCI/ADR-RES ovarian): 3.57 µM
TGI (OVCAR-3 ovarian): 3.76 µM
TGI (OVCAR-4 ovarian): 5.46 µM
TGI (OVCAR-5 ovarian): 5.54 µM
TGI (OVCAR-8 ovarian): 2.8 µM
TGI (P388 leukemia): 1.26 µM
TGI (P388/ADR leukemia): 1.61 µM
TGI (RPMI-8226 leukemia): 7.6 µM
TGI (RXF 393 renal): 1.92 µM
TGI (SF-268 CNS): 2.09 µM
TGI (SF-295 CNS): 3.2 µM
TGI (SF-539 CNS): 2.52 µM
TGI (SK-MEL-2 melanoma): 3.44 µM
TGI (SK-MEL-28 melanoma): 4.03 µM
TGI (SK-MEL-5 melanoma): 2.23 µM
TGI (SK-OV-3 ovarian): 6.93 µM
TGI (SN12C renal): 1.31 µM
TGI (SN12K1 renal): 2.2 µM
TGI (SNB-19 CNS): 5.59 µM
TGI (SNB-75 CNS): 0.861 µM
TGI (SNB-78 CNS): 5.14 µM
TGI (SW-620 colon): 2.8 µM
TGI (U251 CNS): 9.1 µM
TGI (UACC-257 melanoma): 3.51 µM
TGI (UACC-62 melanoma): 8.19 µM
TGI (UO-31 renal): 3.02 µM

COC(=O)C(C/C=C(\C)c1ccccc1)C(C)=O (configuration not stated)
TGI (A498 renal): > 100 µM
TGI (A549 NSCLC): > 100 µM
TGI (CCRF-CEM leukemia): > 100 µM
TGI (COLO 205 colon): > 100 µM
TGI (DLD-1 colon): > 100 µM
TGI (DMS 114 small cell lung): > 95.9 µM
TGI (DMS 273 small cell lung): > 100 µM
TGI (EKVX NSCLC): > 100 µM
TGI (HCC-2998 colon): > 100 µM
TGI (HCT-116 colon): > 100 µM
TGI (HCT-15 colon): > 100 µM
TGI (HL-60(TB) leukemia): 53.6 µM
TGI (HOP-18 NSCLC): > 100 µM
TGI (HOP-62 NSCLC): > 100 µM
TGI (HOP-92 NSCLC): 98.3 µM
TGI (HT29 colon): > 100 µM
TGI (IGROV1 ovarian): > 100 µM
TGI (K-562 leukemia): > 100 µM
TGI (KM12 colon): > 100 µM
TGI (KM20L2 colon): > 100 µM
TGI (LOX IMVI melanoma): > 100 µM
TGI (M19-MEL melanoma): > 100 µM
TGI (MALME-3M melanoma): > 100 µM
TGI (MCF7 breast): > 100 µM
TGI (MOLT-4 leukemia): 51.6 µM
TGI (NCI-H226 lung): > 100 µM
TGI (NCI-H23 lung): > 100 µM
TGI (NCI-H460 lung): > 100 µM
TGI (NCI-H522 lung): > 100 µM
TGI (NCI/ADR-RES ovarian): > 100 µM
TGI (OVCAR-3 ovarian): > 100 µM
TGI (OVCAR-4 ovarian): > 100 µM
TGI (OVCAR-5 ovarian): > 100 µM
TGI (OVCAR-8 ovarian): > 100 µM
TGI (P388 leukemia): > 82.1 µM
TGI (P388/ADR leukemia): > 100 µM
TGI (RPMI-8226 leukemia): > 100 µM
TGI (RXF 393 renal): > 100 µM
TGI (SF-268 CNS): > 100 µM
TGI (SF-295 CNS): > 100 µM
TGI (SF-539 CNS): > 100 µM
TGI (SK-MEL-2 melanoma): > 100 µM
TGI (SK-MEL-28 melanoma): > 100 µM
TGI (SK-MEL-5 melanoma): > 100 µM
TGI (SK-OV-3 ovarian): > 100 µM
TGI (SN12C renal): > 100 µM
TGI (SN12K1 renal): > 82.8 µM
TGI (SNB-19 CNS): > 100 µM
TGI (SNB-75 CNS): > 100 µM
TGI (SNB-78 CNS): > 100 µM
TGI (SW-620 colon): > 100 µM
TGI (U251 CNS): > 100 µM
TGI (UACC-257 melanoma): > 87.4 µM
TGI (UACC-62 melanoma): > 100 µM
TGI (UO-31 renal): > 100 µM
TGI (XF 498 CNS): > 100 µM
